# ChEMBL document CHEMBL1157539, “Thousands of chemical starting points for antimalarial lead identification” (Nature, 2010)
# Tested on: Plasmodium falciparum
# Assay: GSK_TCMDC: Inhibition of Plasmodium falciparum 3D7 in whole erythrocytes, using parasite LDH activity as an index of growth.
# Type: functional, organism-based
# Conditions: Plasmodium falciparum, 3D7
row,SMILES,XC50 [nM]
1,Cc1cc(OCCCNC(=N)c2ccc3ccccc3c2)c(C(C)C)cc1Cl,973
2,CN(C)CCCNCc1cn(S(=O)(=O)c2ccccc2Cl)c2ccccc12,1070
3,Cc1[nH]c2ccc(NS(C)(=O)=O)cc2c1C1CCN(CC2CCN(C(=O)/C=C/c3ccc(Cl)c(Cl)c3)CC2)CC1,684
4,O=C(NCC1CCC(C(=O)NCc2cccc(C(F)(F)F)c2)CC1)c1ccc(O)c(-c2ccc(Cl)c(Cl)c2)c1 (stereo not given),711
5,NCCCNc1ccnc2cc(Cl)ccc12,305
6,CN(c1ccc(NC(=O)Nc2cc(C(F)(F)F)ccc2F)cc1)c1ccnc(NCCN2CCOCC2)n1,512
7,Cc1nc(N)nc(N)c1OCc1ccc(Cl)c(Cl)c1,131
8,Oc1ccccc1-c1nc2cccnc2n1CCc1cccc(C(F)(F)F)c1,1270
9,COCCN(C)CCCOc1cc2c(cc1OC)ncn2-c1cc(OCc2ccccc2C(F)(F)F)c(C(N)=O)s1,710
10,N#Cc1ccc(N/C(=N\c2ccc(-c3ccccc3)cc2)NC2CCCc3ccccc32)c(O)c1 (stereo not given),776
11,COc1ccc2ncc(F)c(CCN3C4CCC3CC(NCc3ccc5c(c3)OCCO5)C4)c2n1 (stereo not given),225
12,CCc1cc(NC2CCN(C)CC2)nc(Nc2ccc(C)cc2)n1,694
13,N#CCCN1CCN(Cc2cccc(-c3ccc(-c4nc5cc(F)ccc5[nH]4)cc3)c2)CC1,599
14,CC(=O)N(C)c1ccc(C(=O)Nc2cccc(-c3cccc(-c4nc5cc(C(F)(F)F)ccc5[nH]4)c3)c2)cc1,314
15,CN1CCN(CCCN(Cc2cccc(-c3cccc(CNC4CCCC4)c3)c2)C(=O)CCC2CCCC2)CC1,675
16,Cn1c(N)c(C(=O)CSc2nnc(-c3cccs3)n2Cc2ccccc2)c(=O)n(C)c1=O,792
17,O=C(Nc1ccccc1)c1ccc(-c2cc3ccncc3cc2OC2CCNCC2)s1,654
18,CCN(CC)CCN(Cc1ccc(-c2ccc(C(F)(F)F)cc2)cc1)C(=O)Cn1c(CCc2cccc(F)c2F)nc(=O)c2ccc(F)cc21,360
19,CC(=O)Nc1ccc(CN2CCN(C(c3ccc(F)cc3)c3ccc(F)cc3)CC2)cc1,831
20,CC(C)C1C(=O)N(S(C)(=O)=O)C2CCN(C(=O)c3ccc(CN4CCCCC4)c([N+](=O)[O-])c3)C12 (stereo not given),620
21,CCOc1ccccc1CON1C(N)=NC(N)=NC1(C)C,3.71
22,CC(C)N1CCN(C(=O)c2ccc(CN(C)CCCN3CCN(c4cccc(Cl)c4Cl)CC3)s2)CC1,994
23,O=S(=O)(NC1=NCCC1)c1cccc(Nc2nc(C(F)(F)F)nc3ccccc23)c1,945
24,CCCCSc1ccc(CNCCCCCCNCc2ccc(SCCCC)c3ccccc23)c2ccccc12,631

row,SMILES,XC50 [nM]
1,CN1CCC(Oc2ccc(CN3CC[C@H](NC(=O)c4ccc(F)c(F)c4)C3)c3ccccc23)C1 (stereo not given in full),1080
2,C[C@@H](Oc1cc(-n2cnc3ccc(NC(=O)NC(C)(C)C)cc32)sc1C(N)=O)c1ccccc1Cl,330
3,CC(=O)Nc1ccc(CN(C)C2CCN(c3cc(NC(=O)c4cccc(C)c4)ccn3)CC2)cc1,904
4,CN1CCCC(CN2CCN(Cc3ccc(-c4cccc(-c5nc6cc(F)ccc6[nH]5)c4)cc3)CC2)C1 (stereo not given),184
5,CC(C)(CN1CCCC1)CN(Cc1ccc(-c2ccc(C(F)(F)F)cc2)cc1)C(=O)Cn1c(CCc2cccc(F)c2F)nc(=O)c2ccccc21,790
6,COc1cc(Nc2ccc3cc(S(=O)(=O)N4CCCCC4C)ccc3n2)cc(OC)c1OC (stereo not given),1240
7,O=c1nc(NCCCNCc2cc3c(Cl)cc(Cl)cc3[nH]2)[nH]c2ccccc12,993
8,CNC(=O)c1cnc(Nc2ccc(OCC(O)CN(C)C)cc2)nc1Nc1cccc(OC)c1 (stereo not given),319
9,Oc1ccc(C=NNC(S)=Nc2cccc3ccccc23)c(O)c1,1040
10,Cc1ccc(F)cc1S(=O)(=O)Nc1ccc(CCN2CCC(N3CCCCC3)CC2)cc1,719
11,CC(C)CN(Cc1c(O)ccc2[nH]c(-c3ccc(F)cc3F)nc12)CC(C)C,802
12,O=c1cc(NCCCNCc2cc(Cl)cc(Cl)c2OCc2ccc(Cl)cc2)[nH]c2ccccc12,693
13,COc1ccc(CCNCCCCCCNCCc2ccccc2Cl)cc1OC,657
14,Cc1ccc(N2CCN(CCCCNC(=O)c3ccc(NC(=O)c4ccc(Cl)cc4)cc3)CC2)c(C)c1,764
15,COc1cccc2cc(C(=O)N[C@@H](CC(C)C)C(=O)N[C@H](C=NN3CCOC3=O)CC(C)C)oc12,741
16,CN1CCC(NCc2ccc(-c3ccc(C(F)(F)F)cc3)cc2)CC1,798
17,Cc1cccc2nc(-c3ccc(-c4ccc(CN5CCC(CO)CC5)cc4)s3)[nH]c12,812
18,CCN1CCC(N2CCC(n3c(C)nc4cc(C(F)(F)F)ccc43)CC2)CC1,1020
19,O=C(Nc1ccc2oc(-c3ccc(Br)cc3)nc2c1)c1ccc([N+](=O)[O-])o1,968
20,CCOc1cccc(C2c3c(oc4ccccc4c3=O)C(=O)N2CCN(CC)CC)c1 (stereo not given),746
21,CN1CCN(Cc2cccc(-c3ccc4c(Nc5ccc(Oc6cccnc6)cc5)ccnc4c3)c2)CC1,192
22,CCNc1cc(C(=O)N[C@@H](Cc2ccccc2)[C@H](O)CNC(C)(C)Cc2cccc(Cl)c2)cc(N2CCCCS2(=O)=O)c1,887
23,COc1ccc2nc(C)cc(N/N=C/C=C/c3ccccc3)c2c1,701
24,O=C(Nc1cccc(C(F)(F)F)c1)NC1CCN(c2ccnc3cc(Cl)ccc23)C1 (stereo not given),120

row,SMILES,XC50 [nM]
1,COc1ccccc1OCCN(CC(O)COc1cccc2[nH]c3ccccc3c12)CC(O)COc1cccc2[nH]c3ccccc3c12 (stereo not given),636
2,Oc1ccc(CCNc2nc(NCc3ccccc3-c3ccc(C(F)(F)F)cc3)nc(N3CCCNCC3)n2)cc1,866
3,Cc1cc(C)cc(OCC(O)CN(CCN2CCOCC2)C(=O)Nc2ccc(Br)cc2)c1 (stereo not given),1030
4,O=C(Nc1cccc(-c2nn3ccccc3c2-c2ccnc(Nc3cccc(-c4cnco4)c3)n2)c1)C1CCCCC1,261
5,CCCN(Cc1nnc(-c2cccs2)o1)C(=O)CSc1nnnn1-c1ccc(C)c(C)c1,582
6,CCOc1cc(C(=O)Nc2ccc3nc(N4CCCCC4)cc(C)c3c2)cc(OCC)c1OCC,825
7,CC(=O)COc1c(C2CCN(CCCCNC(=O)c3ccc(-c4ccc(C(F)(F)F)cc4)cc3)CC2)ccc2c1CCCC2,784
8,Cc1c(-c2ccc3c(c2)C(NCCCN2CCCCC2)CC3)cnc(N)c1C (stereo not given),1110
9,CN(C)CCN(C)Cc1nc(-c2ccc3c(Nc4ccc(Oc5ccccc5)cc4)ccnc3c2)cs1,212
10,COc1ccccc1NC(=S)N/N=C/c1ccc(O)cc1O,1020
11,O=C(/C=C/c1ccc(Cl)c(Cl)c1)NCCCCCCN1CCN(C(=O)Nc2cc(F)cc(F)c2)CC1,1070
12,Brc1ccc(Nc2nc(NCC3CCCO3)c3ccccc3n2)cc1 (stereo not given),584
13,O=C(Nc1ccc(OC2CCN(Cc3ccsc3)C2)c(Cl)c1)c1ccc2ncccc2c1 (stereo not given),966
14,c1cncc(-c2cc(N3CCc4ccccc4C3)nc(-c3ccncc3)n2)c1,40.9
15,COCCNCc1ncsc1-c1ccc2c(Nc3ccc(Oc4ccccc4)cc3)ccnc2c1,905
16,CCn1cc(C=C2Oc3c(ccc(O)c3CN3CCCCC3)C2=O)c2cc(OC)ccc21,521
17,CCN(CC)S(=O)(=O)c1ccc(C(C)NC(=O)c2ccccc2COc2ccccc2)cc1 (stereo not given),330
18,Cc1cccc2nc(-c3ccc(-c4cccc(CN5CCC(N)C5)c4)s3)[nH]c12 (stereo not given),773
19,CCN(CC)CCN(Cc1ccc(-c2ccc(C(F)(F)F)cc2)cc1)C(=O)Cn1c(CCc2ccc(F)c(C#N)c2)nc(=O)c2ccccc21,769
20,Cc1cc(N2CCC(NS(=O)(=O)c3ccccc3)CC2)nc(Nc2cccc(C#N)c2)n1,1350
21,OCCN1CCN(Cc2ccc(-c3ccc(-c4nc5cc(C(F)(F)F)ccc5[nH]4)s3)cc2)CC1,379
22,O=C(NC1CCN(Cc2ccccc2)CC1)c1cccc(-c2cc3cc(Cl)c(Cl)cc3[nH]2)c1,725
23,CCN(CC)CCOc1ccc(C(O)(C#CC(O)(c2ccc(Br)cc2)c2ccc(OCCN(CC)CC)cc2)c2ccc(Br)cc2)cc1 (stereo not given),616
24,C=CCC(CC=C)N1C(=O)C(c2ccccc2)(c2ccccc2)N=C1N,659

row,SMILES,XC50 [nM]
1,Nc1ccc(-c2cc(Cl)cc(Cl)c2)cc1-c1cc2ccccc2[nH]1,695
2,CS(=O)(=O)c1cccc(-c2cnc3[nH]cc(-c4cccc(CCN)c4)c3c2)c1,1560
3,O=C(Nc1ccc(Cl)cc1)c1cc(Cl)ccc1NC(=O)C1(c2ccc(Cl)cc2)CCCC1,1100
4,N#Cc1ccc(N2CCN(Cc3ccc(-c4ccc(-c5nc6cc(C(F)(F)F)ccc6[nH]5)s4)cc3)CC2)nc1,814
5,COc1cc(Cc2cnc(N)nc2N)cc(OCc2cccc(C(=O)O)c2)c1OC,835
6,COc1cc(F)c2ncc(Cl)c([C@@H](O)CN3CCC(NCc4ccc5c(n4)NC(=O)CO5)CC3)c2c1,124
7,CC(=O)C1(c2ccccc2)CCN(CCC2(c3ccc(Cl)c(Cl)c3)CN(C(=O)C3CCCCC3)CCO2)CC1 (stereo not given),314
8,CN(C)C(=O)c1ccc(CN(Cc2ccc(OC(C)(C)C)cc2)Cc2ccc3c(c2)OCCO3)cc1,829
9,Cc1ccc(-c2cc(C(=O)Nc3ccc(S(=O)(=O)N4CCOCC4)cc3)[nH]n2)c(O)c1C,920
10,Cc1ccc(NS(=O)(=O)c2cccs2)cc1-c1cccc(C(=O)Nc2ccc(F)cc2)c1,653
11,COc1ccc(NC(=O)CCNc2ccnc(NCCc3ccc(F)cc3)n2)cc1,990
12,Cc1cc2ccccc2c(CON2C(=N)N=C(N)NC2(C)C)c1C,9.5
13,Cc1ccc(C)c(Sc2ccc(NC(=O)CN3CCN(C(=O)c4ccco4)CC3)cc2)c1,716
14,CCNc1cc(C(=O)N[C@@H](Cc2ccccc2)[C@H](O)CNC(CC)c2cccc(Cl)c2)cc(N2CCCC2=O)c1 (stereo not given in full),31.6
15,CCCc1ccc(-c2csc(NC(=O)c3ccc([N+](=O)[O-])o3)n2)cc1,1210
16,Clc1ccc(CNCCCCCCNCc2ccc(Cl)cc2)cc1,845
17,c1ccc2nc(NCCCCCCCCNc3ccc4ccccc4n3)ccc2c1,272
18,CCCCOC(C(=O)OCC1CCCN1C)(c1ccccc1)c1ccccc1 (stereo not given),786
19,CCOc1ccc(Nc2ccc3nonc3c2S(=O)(=O)Nc2ccc(OCC)cc2)cc1,505
20,CC(C(=O)N1CCCC1)N1CCN(C(c2ccccc2)c2ccccc2)CC1 (stereo not given),1100
21,O=C(N1CCN(c2ccc(C(F)(F)F)cc2[N+](=O)[O-])CC1)C(Cl)(Cl)Cl,713
22,Cc1[nH]cc(Br)c(=O)c1-c1ccc(Oc2ccc(OC(F)(F)F)cc2)cc1,325
23,Cc1ccc(CNC(=O)[C@H](CC(C)C)Nc2cc(C)nc(Nc3ccccc3)n2)cc1,1770
